Laboratory results reported in ChEMBL document CHEMBL1159383, “Tasipeptins A and B: new cytotoxic depsipeptides from the marine cyanobacterium Symploca sp” (J Nat Prod, 2003).

Test system: KB
Assay: Cytotoxicity against human KB cells
Type: functional, cell-based

SMILES	IC50 [nM]
CCCC(=O)N[C@H](C(=O)N[C@@H]1C(=O)N[C@@H](CC(C)C)C(=O)N[C@H]2CC[C@@H](O)N(C2=O)[C@@H](CC(C)C)C(=O)N(C)[C@@H](Cc2ccccc2)C(=O)N[C@@H](C(C)C)C(=O)O[C@@H]1C)C(C)C [TASIPEPTIN A]	930
CCCC(=O)N[C@@H]1C(=O)N[C@@H](CC(C)C)C(=O)N[C@H]2CC[C@@H](O)N(C2=O)[C@@H](CC(C)C)C(=O)N(C)[C@@H](Cc2ccccc2)C(=O)N[C@@H](C(C)C)C(=O)O[C@@H]1C [TASIPEPTIN B]	820
